In PubChem BioAssay AID2060504 (Molecular Pharmacology Branch, DTP, NCI, 2025):
pIC50: −log10 of the molar value.

Tested on: 636577-100-R-J1-PDC complex spheroid viability
Experiment: Anticancer human tumor 636577-100-R-J1-PDC patient-derived endometrial adenocarcinoma cell line growth inhibition [GQUAD]
Details: for pIC50: curve of first compound; for viability, T/C: stronger effect = lower value
Procedure, shortened: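 Viability of tumor cells grown as complex spheroids with endothelial and stromal cells, exposed to drug combinations. Top concentration at or near clinical Cmax (else 10 microM), diluted in half-log increments.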

[1] = second compound 0.0316 µM, first compound 0.0316 µM
[2] = second compound 0.0316 µM, first compound 0.1 µM
[3] = second compound 0.0316 µM, first compound 0.316 µM
[4] = second compound 0.0316 µM, first compound 1 µM
[5] = second compound 0.0316 µM, first compound 3.16 µM
[6] = second compound 0.0316 µM, first compound 10 µM
[7] = second compound 0.1 µM, first compound 0.0316 µM
[8] = second compound 0.1 µM, first compound 0.1 µM
[9] = second compound 0.1 µM, first compound 0.316 µM
[10] = second compound 0.1 µM, first compound 1 µM
[11] = second compound 0.1 µM, first compound 3.16 µM
[12] = second compound 0.1 µM, first compound 10 µM
[13] = second compound 0.316 µM, first compound 0.0316 µM
[14] = second compound 0.316 µM, first compound 0.1 µM
[15] = second compound 0.316 µM, first compound 0.316 µM
[16] = second compound 0.316 µM, first compound 1 µM
[17] = second compound 0.316 µM, first compound 3.16 µM
[18] = second compound 0.316 µM, first compound 10 µM
[19] = second compound 1 µM, first compound 0.0316 µM
[20] = second compound 1 µM, first compound 0.1 µM
[21] = second compound 1 µM, first compound 0.316 µM
[22] = second compound 1 µM, first compound 1 µM
[23] = second compound 1 µM, first compound 3.16 µM
[24] = second compound 1 µM, first compound 10 µM
[25] = second compound 3.16 µM, first compound 0.0316 µM
[26] = second compound 3.16 µM, first compound 0.1 µM
[27] = second compound 3.16 µM, first compound 0.316 µM
[28] = second compound 3.16 µM, first compound 1 µM
[29] = second compound 3.16 µM, first compound 3.16 µM
[30] = second compound 3.16 µM, first compound 10 µM
[31] = second compound 10 µM, first compound 0.0316 µM
[32] = second compound 10 µM, first compound 0.1 µM
[33] = second compound 10 µM, first compound 0.316 µM
[34] = second compound 10 µM, first compound 1 µM
[35] = second compound 10 µM, first compound 3.16 µM
[36] = second compound 10 µM, first compound 10 µM
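Also: viability read after seven days of drug exposure.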
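For viability, T/C in this document: luminescence signal used as a proxy for viable cells; 100% = DMSO vehicle control wells.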

CC(=O)O[C@H]1C(=O)[C@@]2(C)[C@H]([C@H](OC(=O)c3ccccc3)[C@]3(O)C[C@H](OC(=O)[C@H](O)[C@@H](NC(=O)c4ccccc4)c4ccccc4)C(C)=C1C3(C)C)[C@]1(OC(C)=O)CO[C@@H]1C[C@@H]2O + Cc1cnc(CNC(=O)c2c(=O)c3ccc(N4CCCN(C)CC4)nc3n3c2sc2ccccc23)cn1 gave a pIC50 (second compound 0.0316 µM) of over 7.50, a pIC50 (second compound 0.1 µM) of over 7.50 and a pIC50 (second compound 0.316 µM) of over 7.50. It also gave a pIC50 (second compound 1 µM) of over 7.50, a pIC50 (second compound 3.16 µM) of over 7.50 and a pIC50 (second compound 10 µM) of over 7.50. The viability, T/C [1] was 22.4%, the viability, T/C [2] was 13.4% and the viability, T/C [3] was 13%. The viability, T/C [4] was 10.6%, the viability, T/C [5] was 9.54% and the viability, T/C [6] was 9.18%. For the same compound, the viability, T/C [7] was 23.1%, the viability, T/C [8] was 16.2% and the viability, T/C [9] was 14.3%. For the same compound, the viability, T/C [10] was 10.2%, the viability, T/C [11] was 12.1% and the viability, T/C [12] was 10.1%. The viability, T/C [13] was 23.6%, the viability, T/C [14] was 18% and the viability, T/C [15] was 13.9%. It also gave a viability, T/C [16] of 12.5%, a viability, T/C [17] of 11.2% and a viability, T/C [18] of 10.7%. The viability, T/C [19] was 21.2%, the viability, T/C [20] was 16.5% and the viability, T/C [21] was 15%. For the same compound, the viability, T/C [22] was 14.2%, the viability, T/C [23] was 13.2% and the viability, T/C [24] was 10.7%. For the same compound, the viability, T/C [25] was 19.6%, the viability, T/C [26] was 18.2% and the viability, T/C [27] was 17.2%. For the same compound, the viability, T/C [28] was 14.3%, the viability, T/C [29] was 15.7% and the viability, T/C [30] was 14.3%. For the same compound, the viability, T/C [31] was 18.1%, the viability, T/C [32] was 18.5% and the viability, T/C [33] was 17.8%. It also gave a viability, T/C [34] of 15.3%, a viability, T/C [35] of 15.2% and a viability, T/C [36] of 15.3%.

COc1cccc2c1C(=O)c1c(O)c3c(c(O)c1C2=O)CC(O)(C(=O)CO)CC3OC1CC(N)C(O)C(C)O1 (stereo unspecified) + Cc1cnc(CNC(=O)c2c(=O)c3ccc(N4CCCN(C)CC4)nc3n3c2sc2ccccc23)cn1 gave a pIC50 (second compound 0.0316 µM) of over 7.50, a pIC50 (second compound 0.1 µM) of over 7.50 and a pIC50 (second compound 0.316 µM) of over 7.50. For the same compound, the pIC50 (second compound 1 µM) was over 7.50, the pIC50 (second compound 3.16 µM) was over 7.50 and the pIC50 (second compound 10 µM) was over 7.50. It also gave a viability, T/C [1] of 22.1%, a viability, T/C [2] of 16.6% and a viability, T/C [3] of 15.6%. The viability, T/C [4] was 8.2%, the viability, T/C [5] was 0.23% and the viability, T/C [6] was 0.38%. It also gave a viability, T/C [7] of 19.2%, a viability, T/C [8] of 15.4% and a viability, T/C [9] of 13.4%. It also gave a viability, T/C [10] of 7.3%, a viability, T/C [11] of 0.09% and a viability, T/C [12] of 0.33%. For the same compound, the viability, T/C [13] was 19%, the viability, T/C [14] was 16.6% and the viability, T/C [15] was 13.1%. The viability, T/C [16] was 7.79%, the viability, T/C [17] was 0.05% and the viability, T/C [18] was 0.28%. The viability, T/C [19] was 18.3%, the viability, T/C [20] was 15.7% and the viability, T/C [21] was 12.5%. The viability, T/C [22] was 6.92%, the viability, T/C [23] was 0.05% and the viability, T/C [24] was 0.3%. For the same compound, the viability, T/C [25] was 13.3%, the viability, T/C [26] was 17.1% and the viability, T/C [27] was 14.2%. The viability, T/C [28] was 0.81%, the viability, T/C [29] was 0.07% and the viability, T/C [30] was 0.15%. It also gave a viability, T/C [31] of 17.1%, a viability, T/C [32] of 15.1% and a viability, T/C [33] of 15.2%. For the same compound, the viability, T/C [34] was 0.07%, the viability, T/C [35] was 0.11% and the viability, T/C [36] was 0.15%.

In the case of O=c1[nH]cc(F)c(=O)[nH]1 + Cc1cnc(CNC(=O)c2c(=O)c3ccc(N4CCCN(C)CC4)nc3n3c2sc2ccccc23)cn1, the pIC50 (second compound 0.0316 µM) was over 7.50, the pIC50 (second compound 0.1 µM) was over 7.50 and the pIC50 (second compound 0.316 µM) was over 7.50. It also gave a pIC50 (second compound 1 µM) of over 7.50, a pIC50 (second compound 3.16 µM) of over 7.50 and a pIC50 (second compound 10 µM) of over 7.50. For the same compound, the viability, T/C [1] was 47.8%, the viability, T/C [2] was 45.1% and the viability, T/C [3] was 49.7%. It also gave a viability, T/C [4] of 39.9%, a viability, T/C [5] of 36.7% and a viability, T/C [6] of 21.3%. It also gave a viability, T/C [7] of 28.9%, a viability, T/C [8] of 26.9% and a viability, T/C [9] of 27.6%. It also gave a viability, T/C [10] of 25.9%, a viability, T/C [11] of 25.5% and a viability, T/C [12] of 18.4%. For the same compound, the viability, T/C [13] was 24.2%, the viability, T/C [14] was 23.3% and the viability, T/C [15] was 17.6%. The viability, T/C [16] was 21.9%, the viability, T/C [17] was 22.2% and the viability, T/C [18] was 16.6%. It also gave a viability, T/C [19] of 21.3%, a viability, T/C [20] of 21.1% and a viability, T/C [21] of 19.7%. It also gave a viability, T/C [22] of 23%, a viability, T/C [23] of 21.1% and a viability, T/C [24] of 20.1%. It also gave a viability, T/C [25] of 20%, a viability, T/C [26] of 19.5% and a viability, T/C [27] of 21.8%. It also gave a viability, T/C [28] of 24.1%, a viability, T/C [29] of 21% and a viability, T/C [30] of 22%. It also gave a viability, T/C [31] of 17.7%, a viability, T/C [32] of 17.9% and a viability, T/C [33] of 18%. It also gave a viability, T/C [34] of 18.7%, a viability, T/C [35] of 20.4% and a viability, T/C [36] of 20.1%.
